Reference: publication PMC12040169 (PLOS Biology, 2025)

Experiment: in vitro
Conditions: human, hela cells, % viability

## O=C(O)C1CCCN(C(=O)NCc2ccc(F)cc2)C1 (centres unmarked) [CBK161364]
  viability at 28.5 h, 10 µM: 95.7%

## O=C(O)C1CCCN(C(=O)NCCOc2ccccc2)C1 (centres unmarked) [CBK161366]
  viability at 28.5 h, 10 µM: 115%

## COc1ccc(CCNC(=O)N2CCCC(C(=O)O)C2)cc1 (centres unmarked) [CBK161367]
  viability at 28.5 h, 10 µM: 101%

## Cc1ccc(NC(=O)N2CCCC(C(=O)O)C2)cc1 (centres unmarked) [CBK161371]
  viability at 28.5 h, 10 µM: 89.5%

## CCOC(=O)CCCNC(=O)N1CCCC(C(=O)O)C1 (centres unmarked) [CBK161374]
  viability at 28.5 h, 10 µM: 83.5%

## O=C(O)C1CCCN1C(=O)Nc1ccccc1Cl (centres unmarked) [CBK161381]
  viability at 28.5 h, 10 µM: 95.8%

## COc1ccc(CCNC(=O)N2CCCC2C(=O)O)cc1 (centres unmarked) [CBK161386]
  viability at 28.5 h, 10 µM: 116%

## COc1cc(C(=O)N2CCC(N(C)C)C2)ccc1Nc1cncc(-c2cc3ccccc3[nH]2)n1 (centres unmarked) [CBK161475]
  viability at 28.5 h, 10 µM: 90.6%

## COc1cccc2cc(C(=O)NCc3ccc(NS(C)(=O)=O)cc3)oc12 [CBK161479]
  viability at 28.5 h, 10 µM: 70.8%

## CC(C)c1ccc(/C=C/C(=O)NCc2ccc(S(N)(=O)=O)cc2)cc1 [CBK161511]
  viability at 28.5 h, 10 µM: 110%

## NS(=O)(=O)c1ccc(CNC(=O)C2(c3ccccc3)CCCC2)cc1 [CBK161523]
  viability at 28.5 h, 10 µM: 101%

## Cc1ccc(CNC(=O)C2(c3ccccc3)CCCC2)cc1F [CBK161529]
  viability at 28.5 h, 10 µM: 85.6%

## CC(C)c1ccc(CNC(=O)C2(c3ccccc3)CCCC2)cc1 [CBK161531]
  viability at 28.5 h, 10 µM: 96.8%

## N#CCCCN1CCC(Oc2nccnc2OCc2ccc(Cl)cc2Cl)CC1 [CBK161568]
  viability at 28.5 h, 10 µM: 94.4%

## N#CCCCN1CCC(Oc2nccnc2OCc2cccc3ccccc23)CC1 [CBK161571]
  viability at 28.5 h, 10 µM: 99.3%

## CC(C)c1ccc(COc2nccnc2OC2CCN(CCCC#N)CC2)cc1 [CBK161576]
  viability at 28.5 h, 10 µM: 96.5%

## Clc1ccc(COc2nccnc2OCC2CCCO2)cc1Cl (centres unmarked) [CBK161587]
  viability at 28.5 h, 10 µM: 105%

## Clc1ccc(COc2nccnc2OCc2cccnc2)cc1Cl [CBK161597]
  viability at 28.5 h, 10 µM: 85%

## CC(COC(C)(C)C)Oc1nccnc1OCc1ccc(Cl)c(Cl)c1 (centres unmarked) [CBK161607]
  viability at 28.5 h, 10 µM: 113%

## CC(Oc1nccnc1OCc1ccc(Cl)c(Cl)c1)c1ccncc1 (centres unmarked) [CBK161609]
  viability at 28.5 h, 10 µM: 84.1%

## Clc1ccc(COc2nccnc2OCc2cccnc2N2CCOCC2)cc1Cl [CBK161610]
  viability at 28.5 h, 10 µM: 88.8%

## CCCc1ccc(N(C)C(=O)c2ccc(C(C)(C)C)cc2)cc1 [CBK161612]
  viability at 28.5 h, 10 µM: 103%

## CCCc1ccc(N(C)C(=O)c2ccc(OCC)cc2)cc1 [CBK161615]
  viability at 28.5 h, 10 µM: 107%

## CCCc1ccc(N(C)C(=O)c2ccc(OC(F)(F)F)cc2)cc1 [CBK161616]
  viability at 28.5 h, 10 µM: 91.4%

## CCCCOc1ccc(C(=O)N(C)c2ccc(CCC)cc2)cc1 [CBK161619]
  viability at 28.5 h, 10 µM: 95.9%

## FC(F)(F)c1cnc(Oc2ccc(-n3ccnc3)cc2)c(Cl)c1 [CBK161625]
  viability at 28.5 h, 10 µM: 90.9%

## COC(=O)CCc1ccc(Oc2ncc(C(F)(F)F)cc2Cl)cc1 [CBK161628]
  viability at 28.5 h, 10 µM: 111%

## CC(N)(Cc1ccc(Oc2ncc(C(F)(F)F)cc2Cl)cc1)C(=O)O (centres unmarked) [CBK161647]
  viability at 28.5 h, 10 µM: 91.9%

## O=C(O)c1ccccc1C(=O)c1ccc(Oc2ncc(C(F)(F)F)cc2Cl)cc1 [CBK161648]
  viability at 28.5 h, 10 µM: 106%

## CC(=O)N1CCN(c2ccc(Oc3ncc(C(F)(F)F)cc3Cl)cc2)CC1 [CBK161650]
  viability at 28.5 h, 10 µM: 104%

## O=C(O)Cc1ccc(Oc2ncc(C(F)(F)F)cc2Cl)cc1 [CBK161657]
  viability at 28.5 h, 10 µM: 104%

## CC(C)(C)OC(=O)Nc1ccc(Oc2ncc(C(F)(F)F)cc2Cl)cc1 [CBK161658]
  viability at 28.5 h, 10 µM: 99.2%

## O=C(Nc1nccs1)c1ccc2[nH]ccc2c1 [CBK161731]
  viability at 28.5 h, 10 µM: 90.5%

## CS(=O)(=O)Nc1ccc(CNC(=O)c2ccccc2Nc2cccc(C(F)(F)F)c2)cc1 [CBK161732]
  viability at 28.5 h, 10 µM: 85.5%

## O=C(NCc1ccc2c(c1)OCO2)c1ccc2[nH]ccc2c1 [CBK161750]
  viability at 28.5 h, 10 µM: 106%

## CC(C)c1ccc(CNC(=O)c2ccc3[nH]ccc3c2)cc1 [CBK161754]
  viability at 28.5 h, 10 µM: 96.1%

## CC(C)(C)OC(=O)Nc1ccc2c(ccn2CCN2CCOCC2)c1 [CBK161767]
  viability at 28.5 h, 10 µM: 95%

## CC(C)(C)OC(=O)N1CCC(COc2ccc(-c3ccncc3)cn2)CC1 [CBK161777]
  viability at 28.5 h, 10 µM: 91.8%

## Clc1ccc(COc2nccnc2OCCOc2ccccc2)cc1Cl [CBK161853]
  viability at 28.5 h, 10 µM: 92.5%

## COc1ccc(S(=O)(=O)N(Cc2c(F)cccc2F)C2CCN(C)CC2)cc1 [CBK161910T]
  viability at 28.5 h, 10 µM: 109%

## CC(C)(C)CN1CCC(Oc2nccnc2OCc2ccc(Br)cc2F)CC1 [CBK161946]
  viability at 28.5 h, 10 µM: 116%

## CC(C)Oc1ccc(C(=O)N2CCC(COc3ccc(-c4ccc(S(C)(=O)=O)cc4)cn3)CC2)nc1 [CBK161989]
  viability at 28.5 h, 10 µM: 86.8%

## CSCCCNC(=O)c1cnn2c(C)c(Cc3ccccc3C)c(C)nc12 [CBK162028]
  viability at 28.5 h, 10 µM: 96.7%

## Cc1nc2c(C(=O)NCCCOC(C)C)cnn2c(C)c1Cc1cccc(Cl)c1 [CBK162043]
  viability at 28.5 h, 10 µM: 97.1%

## CCOCCCNC(=O)c1cnn2c(C)c(Cc3cccc(OC)c3)c(C)nc12 [CBK162056]
  viability at 28.5 h, 10 µM: 113%

## CCOCCCNC(=O)c1cnn2c(C)c(Cc3cccc(C#N)c3)c(C)nc12 [CBK162081]
  viability at 28.5 h, 10 µM: 101%

## Cc1nc2c(C(=O)NCC(F)(F)F)cnn2c(C)c1Cc1cccc(C#N)c1 [CBK162093]
  viability at 28.5 h, 10 µM: 91.6%

## COCCNC(=O)c1cnn2c(C)c(Cc3cccc(C#N)c3)c(C)nc12 [CBK162096]
  viability at 28.5 h, 10 µM: 94.6%

## COCC1CCCN1C(=O)c1cnn2c(C)c(Cc3cccc(C#N)c3)c(C)nc12 (centres unmarked) [CBK162099]
  viability at 28.5 h, 10 µM: 99.6%

## Cc1nc2c(C(=O)NCCCN3CCCC3=O)cnn2c(C)c1Cc1cccc(F)c1 [CBK162104]
  viability at 28.5 h, 10 µM: 101%

## Cc1nc2c(C(=O)NCC(F)(F)F)cnn2c(C)c1Cc1cccc(F)c1 [CBK162117]
  viability at 28.5 h, 10 µM: 112%

## CCOCCCNC(=O)c1cnn2c(C)c(CC)c(C)nc12 [CBK162129]
  viability at 28.5 h, 10 µM: 93.7%

## CCc1c(C)nc2c(C(=O)NC(CC)COC)cnn2c1C (centres unmarked) [CBK162133]
  viability at 28.5 h, 10 µM: 97.5%

## CCc1c(C)nc2c(C(=O)N3CCOCC3)cnn2c1C [CBK162134]
  viability at 28.5 h, 10 µM: 99.3%

## CCc1c(C)nc2c(C(=O)NCCSC)cnn2c1C [CBK162147]
  viability at 28.5 h, 10 µM: 97.2%

## CCc1c(C)nc2c(C(=O)NCCCOC)cnn2c1C [CBK162149]
  viability at 28.5 h, 10 µM: 82.2%

## CCc1c(C)nc2c(C(=O)NCc3cc(C)on3)cnn2c1C [CBK162150]
  viability at 28.5 h, 10 µM: 82.5%

## CSCCCNC(=O)c1cnn2c(C)c(Cc3cccnc3)c(C)nc12 [CBK162164]
  viability at 28.5 h, 10 µM: 104%

## CNC(=O)c1cnn2c(C)c(Cc3cccnc3)c(C)nc12 [CBK162165]
  viability at 28.5 h, 10 µM: 78.2%

## COc1ccc(Cc2c(C)nc3c(C(=O)NCC4COc5ccccc5O4)cnn3c2C)cc1 (centres unmarked) [CBK162179]
  viability at 28.5 h, 10 µM: 102%

## COCC1CCCN1C(=O)c1cnn2c(C)c(Cc3ccc(OC)cc3)c(C)nc12 (centres unmarked) [CBK162190]
  viability at 28.5 h, 10 µM: 107%

## COc1ccc(Cc2c(C)nc3c(C(=O)NCCSC)cnn3c2C)cc1 [CBK162191]
  viability at 28.5 h, 10 µM: 111%

## Cc1nc2c(C(=O)N3CCNC(=O)C3)cnn2c(C)c1Cc1ccccc1 [CBK162197]
  viability at 28.5 h, 10 µM: 90.3%

## Cc1ccc(C(=O)N2CCC3(CC2)CC(=O)c2cc(Br)ccc2O3)cc1C [CBK162264]
  viability at 28.5 h, 10 µM: 105%

## Cc1ccc(C(=O)CN2CCC3(CC2)CC(=O)c2cc(Br)ccc2O3)cc1 [CBK162266]
  viability at 28.5 h, 10 µM: 91.2%
